We go through three molecules from ChEMBL document CHEMBL1134100, “An unhydrolyzable analogue of N-(4-hydroxyphenyl)retinamide. synthesis and preliminary biological studies” (Bioorg Med Chem Lett, 2001).

Test [1] concerns Rattus norvegicus. Nature of the test: Effect on total mammary tumor volume in female rats on day 14 after a diet additive of 2 mmol/kg (+/-S.E) (p<0.05). The class given is functional.
Test [2] concerns Rattus norvegicus. Nature of the test: Effect on total mammary tumor volume in female rats on day 1 after a diet additive of 2 mmol/kg (+/-S.E) (p<0.05). The class given is functional.
In test [3] the test system is Rattus norvegicus. The test is described as follows: Effect on total mammary tumor volume in female rats on day 7 after a diet additive of 2 mmol/kg (+/-S.E) (p<0.05). It counts as functional.
The subject of test [4] is Rattus norvegicus. The test is described as follows: % change in the mean tumor volume in female rats on 21 days after a diet additive of 2 mmol/kg of the compound. It counts as functional.
The subject of test [5] is Rattus norvegicus. The test is described as follows: Effect on total mammary tumor volume in female rats on day 21 after a diet additive of 2 mmol/kg (+/-S.E) (p<0.05). The class given is functional.
Test [6] deals with T1, Retinoic acid receptor gamma (Homo sapiens, UniProt P13631).
T1 sequence (P13631 whole entry): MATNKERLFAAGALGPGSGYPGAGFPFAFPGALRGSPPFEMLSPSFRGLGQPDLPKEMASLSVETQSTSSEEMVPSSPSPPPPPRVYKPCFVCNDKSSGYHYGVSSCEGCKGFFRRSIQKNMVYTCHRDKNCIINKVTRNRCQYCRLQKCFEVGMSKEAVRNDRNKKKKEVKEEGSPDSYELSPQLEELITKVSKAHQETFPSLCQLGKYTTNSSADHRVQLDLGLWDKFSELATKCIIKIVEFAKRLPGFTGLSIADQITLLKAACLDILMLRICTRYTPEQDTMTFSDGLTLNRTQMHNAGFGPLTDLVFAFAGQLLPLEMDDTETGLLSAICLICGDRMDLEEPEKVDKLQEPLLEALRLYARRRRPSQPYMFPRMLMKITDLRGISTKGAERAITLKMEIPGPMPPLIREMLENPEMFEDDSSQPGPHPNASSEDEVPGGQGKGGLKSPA
Nature of the test: Binding affinity against Retinoic acid receptor gamma.

As for `CC1=C(/C=C/C(C)=C/C=C/C(C)=C/C(=O)O)C(C)(C)CCC1` [TRETINOIN], the Mean tumor volume is 0.27 cm*3 in the test with Rattus norvegicus [1], 0.69 cm*3 with Rattus norvegicus [2], 0.46 cm*3 with Rattus norvegicus [3] and 0.18 cm*3 with Rattus norvegicus [5]. Moreover, in the test on Rattus norvegicus [4], the Change was -74%.
On to `CC1=C(/C=C/C(C)=C/C=C/C(C)=C/C(=O)Nc2ccc(O)cc2)C(C)(C)CCC1` [FENRETINIDE], for which the Ki in test [6] was > 400 nM. Besides, the Mean tumor volume was determined as 0.1 cm*3 in the test on Rattus norvegicus [1], 0.2 cm*3 in the test on Rattus norvegicus [2], 0.17 cm*3 with Rattus norvegicus [3] and 0.05 cm*3 in the test with Rattus norvegicus [5]. Moreover, the Change in the test with Rattus norvegicus [4] is -77%.
As for `CC1=C(/C=C/C(C)=C/C=C/C(C)=C/C(=O)Cc2ccc(O)cc2)C(C)(C)CCC1`, in test [6], the Ki is > 4000 nM. In addition, the Mean tumor volume in the test with Rattus norvegicus [1] is 0.15 cm*3; in the test with Rattus norvegicus [2], 0.59 cm*3; in the test on Rattus norvegicus [3], 0.47 cm*3; in the test on Rattus norvegicus [5], 0.09 cm*3. In addition, in the test on Rattus norvegicus [4], the Change was -85%.

Broadly, the Ki is the equilibrium dissociation constant of an inhibitor or competing ligand from its target. Read a high Ki as lower affinity.
